According to paper PMC6839502 (Journal of Alzheimer's Disease, 2019):
Where two headings read alike, the source gives them in different places.

Assays:
[1] = cited from earlier work
CSF Aβ = conditions: cited from earlier work; for Average reduction of steady state CSF Aβ40: mild-to-moderate AD patients; for Reduction of CSF Aβ40: healthy adults and older subjects combined; for Reduction in CSF Aβ: healthy older subjects
[2] = system: fur, hair and skin pigmentation; conditions: cited from earlier work; for Fur and skin pigmentation: mice, rats, or dogs following chronic dosing regimens
BACE1 over BACE2 = conditions: cited from earlier work
BACE1 over CatD = conditions: cited from earlier work
[3] = Safety and tolerability in study B8271007; type: in vivo, human; conditions: single oral dose of 2 mg midazolam alone (period 1)

CN1C(=N)N[C@](C)(c2cc(NC(=O)c3ccc(F)cn3)ccc2F)CS1(=O)=O [MK-8931]
Liver toxicity in clinical studies [1]: liver toxicity was not reported
Average reduction of steady state CSF Aβ40 (CSF Aβ; 12 mg QD): 57%
Average reduction of steady state CSF Aβ40 (CSF Aβ; 40 mg QD): 79%
Hair depigmentation ([2]; animal studies): hair depigmentation

C[C@@]1(c2cc(NC(=O)c3ccc(C#N)cn3)ccc2F)C=CSC(N)=N1 [JNJ-54861911]
Liver toxicity in clinical studies ([1]; Phase II and Phase IIb/III studies): concerns over abnormal liver enzymes leading to the termination
Reduction of CSF Aβ40 (CSF Aβ; 5 mg QD): approximately 50%
Reduction of CSF Aβ40 (CSF Aβ; 25 mg QD): ~80%

C[C@@]1(c2nc(NC(=O)c3ncc(C(F)(F)F)cc3Cl)ccc2F)CO[C@@](C)(C(F)(F)F)C(N)=N1 [CNP520]
Liver toxicity in clinical studies [1]: liver toxicity was not reported
Selectivity for BACE1 over BACE2 in vitro (BACE1 over BACE2): 3 fold
Hair depigmentation ([2]; long-term treatment in mice or dogs): did not result in any hair depigmentation

CC#Cc1cncc(-c2ccc3c(c2)[C@@]2(N=C(C)C(N)=N2)[C@]2(CC[C@H](OC)CC2)C3)c1 [AZD3293]
Liver toxicity in clinical studies [1]: liver toxicity was not reported
Reduction in CSF Aβ (CSF Aβ; 15 mg QD): approximately 51%
Reduction in CSF Aβ (CSF Aβ; 50 mg QD): ~76%
Selectivity for BACE1 over CatD (BACE1 over CatD): good selectivity
Hair depigmentation ([2]; animal studies): hair depigmentation
Fur and skin pigmentation [2]: fur and skin pigment loss

Cc1ncc2n1-c1ccc(Cl)cc1C(c1ccccc1F)=NC2 [midazolam, reference compound]
TEAEs deemed treatment related [3]: none
TEAEs reported [3]: three

Cc1cc(C#N)cnc1C(=O)Nc1ccc(F)c([C@]2(C)CO[C@@](C)(C(F)(F)F)C(N)=N2)c1 [NB-360]
Fur and skin pigmentation [2]: fur and skin pigment loss

NC1=N[C@@]2(c3cc(NC(=O)c4ccc(F)cn4)ccc3F)COC[C@H]2CS1 [LY2886721]
Liver toxicity in clinical studies ([1]; Phase II study): concerns over abnormal liver enzymes leading to the termination
